# According to patent US20250057097A1, “PHOSPHODIESTERASES INHIBITORS TO PROMOTE IN VITRO PLANT CELL REPROGRAMMING TOWARDS PLANT EMBRYOGENESIS OR MICROCALLUS FORMATION” (CONSEJO SUPERIOR DE INVESTIGACIONES CIENTÍFICAS (CSIC), priority 2021, published 2025):
# Key:
# [1] = system: Brassica napus microspore cotyledonary embryos; assay: Germination capacity of embryos produced in treated microspore cultures; type: cell-based; conditions: cotyledonary embryos from 30-40 days cultures, desiccated and cultured under germination conditions
# Method: To evaluate the quality of embryos produced in microspore embryogenesis cultures in the presence of the inhibitors, embryo germination assays were performed. Brassica napus microspore cotyledonary embryos originated from control and treated-cultures were used for in vitro embryo germination and conversion to plantlets as previously described (Prem et al., 2012 BMC Plant Biology 12, 127). The 34-40 old dicotyledonous embryos, after air desiccation on sterile filter paper were germinated in MS (Murashige and Skoog) medium containing sucrose 2% (w/v) and gelled with 7 g/L bacteriological agar (w/v). Microspore derived-embryos were incubated for 15-20 days at 18° C. in darkness conditions till activation of radicle and plumule, and quantified in terms of percentage of embryos showing normal growth, similar to zygotic embryo germination.
# [2] = system: Arabidopsis mesophyll protoplasts; assay: Microcallus formation (proliferation efficiency) in immobilized mesophyll protoplasts; type: cell-based, Arabidopsis thaliana; conditions: 48 h pulse treatment
# Method: Seeds of an Arabidopsis thaliana line overexpressing histone 2B fused with yellow fluorescent protein (H2B-YFP) were surface-sterilized and sown on MS agar. After 24 h stratification, plates were cultured vertically for 7 days under long day conditions (16 h light-8 h dark) at 22° C. Prior to seedling harvest, plates were kept vertically in the dark at 4° C. for 24 h. Protoplasts were isolated from hypocotyl and cotyledons including primary leaves according to Dovzhenko et al., Protoplasma, 222(1-2):107-11 (2003).
# Protoplast density was determined by cell counting in a Fuchs-Rosenthal chamber. For immobilization, protoplasts were mixed with equal volumes of 1.2% (w/v) low melting agarose in protoplast buffer, prewarmed at 40° C. and immediately pipetted into a 96-well plate (Ibidi, Germany), prewarmed at 34° C. with 125 μL per well. The plate was immediately centrifuged (2 min, 30 g) and incubated at 4° C. for 5 min, 200 μL of cultivation medium was added on top of each well and the protoplasts were cultivated at 22° C. in the dark. Cultivation medium was composed of macro and micro elements based on Kao K N and Michayluk M R. Planta., 126(2):105-10 (1975), supplemented with 2 μM of 2,4-D and 1 μM of thidiazurone. For PDE inhibitors treatments, PDE inhibitors were dissolved in DMSO and added to the medium with the concentration given (liquid media). […]
# An automated microscope (MORE1, Till I.D. GmbH, Munich, Germany) was used for the analysis of protoplast development and for the detection of YFP fluorescence. Transillumination was recorded with 10×0.45 and 20×0.8 objectives (Zeiss); epifluorescence was recorded after excitation with single-mode diode lasers (iBeam smart, Toptica) with excitation of 550 nm (YFP)/green emission filter. […]
# Images were recorded immediately after immobilization and 10 days after immobilization (DAIs). […] Quantification of proliferating cells was performed by exploiting shape differences of dividing or closely adjacent nuclei after the application of EDM binary operations on epifluorescence images in comparison with circular fluorescence signals from non-dividing mononucleic cells (Brocher Int. J. Image Process, 8, 30-48 (2014)). Corresponding cellular shape parameters from proliferating microcalli were determined from selecting segmented transillumination images after filtering with processed epiflourescence images using the BioVoxxel binary feature extraction function.
# PDE inhibitors were tested for their capability to increase the proliferation rate of Arabidopsis protoplasts isolated from leaves. […] Microscopic images were recorded 10 days after immobilization and proliferating microcalli were identified by the presence of multiple fluorescing nuclei visualized by exploiting the nuclear-encoded H2B-YFP marker (see FIG. 3). […]
structure (smiles),measurement,setting,value
"COc1ccc(-c2nc(-c3ccccc3Br)[nH]c2-c2ccc(OC)cc2)cc1 [AGF4.17, 2-(2-Bromophenyl)-4,5-bis(4-methoxyphenyl)-1H-imidazole]",germination capacity / quality of embryos,[1],well-developed roots and hypocotyls in most embryos
same,induction of microcallus formation compared with the untreated control,[2]; 10 μM,250%
"CSc1nc2ccccc2c(=O)n1-c1c(F)cccc1F [TC2.43, 3-(2,6-Difluorophenyl)-2-methylthio-4-oxo-3,4-dihydroquinazoline]",germination capacity / quality of embryos,[1],well-developed roots and hypocotyls in most embryos
same,increased rate of microcalli formation relative to the untreated control,[2]; 1 μM,140%
same,"microcalli formation rate increased by, relative to the untreated control",[2]; 10 μM,200%
"Cc1oc(-c2ccccc2F)nc1CN1CCC[C@@H](C(=O)NCc2cccc(Cl)c2)C1 [JHD1.48, (R)—N-(3-chlorobenzyl)-1-((2-(2-fluorophenyl)-5-methyloxazol-4-yl)methyl) piperidin-3-carboxamide]",germination capacity / quality of embryos,[1],well-developed roots and hypocotyls in most embryos
same,"microcalli formation rate increased by, relative to the untreated control",[2]; 10 μM,50%
"O=C(Nc1c(Cl)cncc1Cl)c1ccc(OC(F)F)c(OCC2CC2)c1 [FDA4.21, 3-(cyclopropylmethoxy)-N-(3,5-dichloropyridin-4-yl)-4-(difluoromethoxy) benzamide, reference compound]",germination capacity / quality of embryos,[1],well-developed roots and hypocotyls in most embryos
"COc1ccc(C2CNC(=O)C2)cc1OC1CCCC1 (stereo not drawn) [FDA4.22, 4-(3-cyclopentyloxy-4-methoxyphenyl)pyrrolidin-2-one, reference compound]",germination capacity / quality of embryos,[1],well-developed roots and hypocotyls in most embryos
